The record followed here is patent publication US20160052955A1, “[…] INHIBITORS FOR TREATING CANCERS” (SLOAN-KETTERING INSTITUTE FOR CANCER RESEARCH, priority 2013, published 2016).

For orientation: IC50 means the concentration at which inhibition is half-maximal.

What all share (type): biochemical
For one test, the target named is T1, SET8 (191-352) (Homo sapiens, UniProt Q9NQR1).
T1 construct: SET8 (191-352)
T1 sequence (Q9NQR1 191-352 isoform Q9NQR1-2): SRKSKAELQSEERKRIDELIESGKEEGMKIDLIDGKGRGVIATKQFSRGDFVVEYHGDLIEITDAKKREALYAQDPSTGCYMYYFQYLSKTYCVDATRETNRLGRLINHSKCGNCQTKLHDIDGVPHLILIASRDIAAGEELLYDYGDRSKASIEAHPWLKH
Briefly: Filter-paper methyltransferase assay, SET8. The conditions noted are these: substrate H4 (10-30 aa), 1000 nM enzyme, 8 h.

For another test, the target named is T2, PRMT3 (211-531) (Homo sapiens, UniProt O60678).
T2 construct: PRMT3 (211-531)
T2 sequence (O60678 211-531): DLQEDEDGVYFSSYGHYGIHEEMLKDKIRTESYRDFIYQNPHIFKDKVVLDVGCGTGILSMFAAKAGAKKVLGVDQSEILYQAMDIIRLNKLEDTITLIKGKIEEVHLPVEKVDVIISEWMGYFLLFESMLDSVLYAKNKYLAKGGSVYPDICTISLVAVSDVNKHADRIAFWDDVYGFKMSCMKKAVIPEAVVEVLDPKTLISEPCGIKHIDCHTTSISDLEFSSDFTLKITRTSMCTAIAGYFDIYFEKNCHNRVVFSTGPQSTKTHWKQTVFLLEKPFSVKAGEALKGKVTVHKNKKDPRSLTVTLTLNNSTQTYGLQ
Briefly: Filter-paper methyltransferase assay, PRMT3. The conditions noted are these: substrate RGG, 100 nM enzyme, 3 h; read-out: IC50 PRMT3.

The next test has as its target T3, G9a (913-1913) (Homo sapiens, UniProt Q96KQ7).
T3 construct: G9a (913-1913)
T3 sequence (Q96KQ7 913-1193 limits assumed): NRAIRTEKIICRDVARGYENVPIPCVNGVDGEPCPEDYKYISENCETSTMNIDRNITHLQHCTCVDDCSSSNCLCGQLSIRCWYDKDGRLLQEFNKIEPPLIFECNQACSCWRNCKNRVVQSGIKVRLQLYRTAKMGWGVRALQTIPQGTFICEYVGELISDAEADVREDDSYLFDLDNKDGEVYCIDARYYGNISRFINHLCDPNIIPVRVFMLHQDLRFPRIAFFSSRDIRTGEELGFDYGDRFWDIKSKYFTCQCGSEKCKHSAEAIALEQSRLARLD
Briefly: Filter-paper methyltransferase assay, G9a. The conditions noted are these: substrate H3 (1-21 aa), 20 nM enzyme, 1 h.

In the next test the target is T4, GLP1 (951-1235) (Homo sapiens, UniProt Q9H9B1).
T4 construct: GLP1 (951-1235)
T4 sequence (Q9H9B1 982-1266): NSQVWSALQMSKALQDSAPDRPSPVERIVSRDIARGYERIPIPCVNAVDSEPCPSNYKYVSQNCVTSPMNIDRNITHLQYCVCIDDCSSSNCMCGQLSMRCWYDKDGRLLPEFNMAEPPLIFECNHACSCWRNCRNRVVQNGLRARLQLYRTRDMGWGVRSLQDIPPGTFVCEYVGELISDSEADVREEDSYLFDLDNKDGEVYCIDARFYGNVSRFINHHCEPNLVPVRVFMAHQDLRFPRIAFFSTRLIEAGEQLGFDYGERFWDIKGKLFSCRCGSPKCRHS
The experiment in a line: Filter-paper methyltransferase assay, GLP1. The conditions noted are these: substrate H3 (1-21 aa), 10 nM enzyme, 1 h. Here is the method:
Methylation Reaction. The 20 μL methylation reaction was carried out at ambient temperature using two mixtures: A. 10 μl of enzyme mixture in the assay buffer containing 50 mM Hepes (pH=8.0), 0.005% Tween-20, 5 μg/ml BSA and 1 mM TCEP; B. 10 μl of a mixture of […], 0.15 μCi [^3H-Me]-SAM cofactor and 3 μM of the corresponding peptide substrate in the same assay buffer. After A and B were mixed for a designated time period, the reaction mixture was examined with our filter-paper assay.
Filter-paper Assay. This assay relies on Whatman P-81 filter paper, which binds peptides but not SAM. Protein Methyl Transferases (PMTs) transfer ^3H-Me of [^3H-Me]-SAM to peptide substrates and the resultant ^3H-methylated, filter-paper-bound peptide is quantified with a scintillation counter. Briefly, 6 μl of the methylation reaction was spotted onto Whatman P-81 phosphocellulose filter paper (1.2×1.2 cm^2) to immobilize the ^3H-labeled peptide. After drying in air for 20 min, the filter paper was immersed into 20 mL of 50 mM Na2CO3/NaHCO3 buffer (pH=9.2), and washed 5 times for 10 min each time. The washed filter paper was then transferred to a 20 ml scintillation vial containing 1 mL of distilled water and 10 mL of Ultima Gold scintillation cocktail or 7 mL scintillation vial containing 0.5 mL od distilled water and 5 mL of scintillation cocktail (PerkinElmer). The radioactivity was quantified by a Beckman LS6000IC liquid scintillation counter.
Dose-response Curves and IC50. Twice the PMT concentration was incubated for 10 min with varied concentration of inhibitors (0.1-400 μM stocks), into which 10 μl of the PMT peptide substrate and radioactive cofactor (3 μM of the corresponding peptide and 1.5 μM, 0.15 μCi [^3H-Me]-SAM) were added. After incubating the reaction mixture for the respective reaction time, the conversion was quantified with the filter paper assay as described above. The inhibition was expressed as the percentage between the high control (no inhibition) and the low control (no enzyme) as follows: Percentage Inhibition=[(high control−reading)/(high control−low control)]×100%. Each experiment was performed in triplicate. The IC50 values were obtained by fitting inhibition percentage versus inhibitor concentration using GraphPad Prism5 software.

Another test deals with T5, SET7/9 Full-length (Homo sapiens, UniProt Q8WTS6).
T5 construct: SET7/9 Full-length
T5 sequence (Q8WTS6 1-366): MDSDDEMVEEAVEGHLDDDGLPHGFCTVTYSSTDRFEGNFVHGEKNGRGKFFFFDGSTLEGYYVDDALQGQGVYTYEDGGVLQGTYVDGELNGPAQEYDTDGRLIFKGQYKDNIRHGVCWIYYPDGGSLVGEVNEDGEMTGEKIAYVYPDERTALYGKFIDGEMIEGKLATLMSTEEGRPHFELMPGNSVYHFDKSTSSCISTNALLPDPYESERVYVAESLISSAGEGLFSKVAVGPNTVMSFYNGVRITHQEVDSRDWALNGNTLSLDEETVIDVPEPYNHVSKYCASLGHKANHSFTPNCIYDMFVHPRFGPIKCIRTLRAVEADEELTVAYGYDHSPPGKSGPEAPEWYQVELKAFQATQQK
Briefly: Filter-paper methyltransferase assay, SET7/9. The conditions noted are these: substrate H3 (1-21 aa), 150 nM enzyme, 3 h.

In a further test the target is T6, SETD2 (1347-1711) (Homo sapiens, UniProt Q9BYW2).
T6 construct: SETD2 (1347-1711)
T6 sequence (Q9BYW2 1347-1711): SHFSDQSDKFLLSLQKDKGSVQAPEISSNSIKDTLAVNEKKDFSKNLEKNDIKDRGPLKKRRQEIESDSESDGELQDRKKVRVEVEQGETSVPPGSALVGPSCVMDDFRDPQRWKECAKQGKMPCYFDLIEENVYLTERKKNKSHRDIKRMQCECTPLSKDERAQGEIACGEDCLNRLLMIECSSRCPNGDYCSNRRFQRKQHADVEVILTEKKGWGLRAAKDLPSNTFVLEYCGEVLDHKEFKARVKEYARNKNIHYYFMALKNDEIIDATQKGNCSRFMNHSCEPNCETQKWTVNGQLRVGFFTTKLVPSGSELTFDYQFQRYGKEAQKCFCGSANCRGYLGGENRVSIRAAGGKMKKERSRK
Briefly: Filter-paper methyltransferase assay, SETD2. Particulars: substrate H3 (20-50 aa), 250 nM enzyme, 4 h.

For the molecule `CC(C)(C)c1ccc(NC(=O)NCCC[C@H](CNCc2ccccc2)C[C@H]2O[C@@H](n3cnc4c(N)ncnc43)[C@@H](O)C2O)cc1` (stereo partly drawn) [Example 29], the IC50 at SET8 (191-352) was greater than 100 µM; at PRMT3 (211-531), greater than 50 µM; against G9a (913-1913), greater than 100 µM; at GLP1 (951-1235) it was greater than 100 µM; at SET7/9 Full-length it was greater than 100 µM; against SETD2 (1347-1711), greater than 100 µM.
